Patent publication US10588316B2 (priority 2015, dated 2020)
Where “and” joins values, the source holds several entries; their conditions need not be identical. Equal entries are not always repeated. Where two headings read alike, the source gives them in different places.

Legend:
Fusarium graminearum = experiment: microbe, parasite or virus in culture; assay type: cell-based; details: for Average Fungal Colony Diameter F.g / Growth Inhibition Rate F.g: sensitive strains
Fusarium asiaticum = experiment: microbe, parasite or virus in culture; assay type: cell-based; details: for Average Fungal Colony Diameter F.a / Growth Inhibition Rate F.a: sensitive strains
[1] = tested on: Fusarium graminearum and Fusarium asiaticum; experiment: organism not typed; assay type: cell-based
[2] = tested on: carbendazim-resistant Fusarium asiaticum; experiment: microbe, parasite or virus in culture; assay type: cell-based; details: for DON Biosynthesis Inhibition Rate / Toxin Production Capability: Jinggangmycin + Tebuconazole 0 + 0.1 μg/ml
powdery mildew [3] = assay type: in vivo, wheat; details: dosage g ai./mu: c1 Jinggangmycin, c2 Tebuconazole of the line
wheat scab [4] = assay type: in vivo
leaf blight [5] = assay type: in vivo, wheat
powdery mildew [6] = assay type: in vivo, wheat
rust [7] = assay type: in vivo, wheat
wheat scab [8] = assay type: in vivo; remark: listed apart in the source
leaf blight [9] = assay type: in vivo, wheat; remark: listed apart in the source
powdery mildew [10] = assay type: in vivo, wheat; remark: listed apart in the source
rust [11] = assay type: in vivo, wheat; remark: listed apart in the source
[12] = assay type: in vivo, wheat
wheat scab [13] = assay type: in vivo; details: Preparation 50 g/mu; Tebuconazole 10 g ai. agent/mu
leaf blight [14] = assay type: in vivo, wheat; remark: listed apart in the source
powdery mildew [15] = assay type: in vivo, wheat; remark: listed apart in the source
rust [16] = assay type: in vivo, wheat; remark: listed apart in the source
[17] = assay type: in vivo, wheat; remark: listed apart in the source
wheat scab [18] = assay type: in vivo; details: Preparation 100 g/mu; Jinggangmycin 0, Tebuconazole 20 g ai. agent/mu
leaf blight [19] = assay type: in vivo, wheat; details: Preparation 100 g/mu; Jinggangmycin 0, Tebuconazole 20 g ai. agent/mu
powdery mildew [20] = assay type: in vivo, wheat; details: Preparation 100 g/mu; Jinggangmycin 0, Tebuconazole 20 g ai. agent/mu
rust [21] = assay type: in vivo, wheat; details: Preparation 100 g/mu; Jinggangmycin 0, Tebuconazole 20 g ai. agent/mu
wheat scab [22] = assay type: in vivo; details: Preparation 100 (mL/mu); Jinggangmycin 0, Tebuconazole 20 g ai. agent/mu
leaf blight [23] = assay type: in vivo, wheat; details: Preparation 100 (mL/mu); Jinggangmycin 0, Tebuconazole 20 g ai. agent/mu
powdery mildew [24] = assay type: in vivo, wheat; details: Preparation 100 (mL/mu); Jinggangmycin 0, Tebuconazole 20 g ai. agent/mu
rust [25] = assay type: in vivo, wheat; details: Preparation 100 (mL/mu); Jinggangmycin 0, Tebuconazole 20 g ai. agent/mu
wheat scab [26] = assay type: in vivo; remark: listed apart in the source
powdery mildew [27] = assay type: in vivo, wheat; remark: listed apart in the source
[28] = Tebuconazole 2.0 g ai. agent/mu
[29] = Tebuconazole 4.0 g ai. agent/mu
[30] = Tebuconazole 6.0 g ai. agent/mu
[31] = Tebuconazole 7.5 g ai. agent/mu
[32] = Tebuconazole 8.8 g ai. agent/mu
[33] = Tebuconazole 9.5 g ai. agent/mu
[34] = Tebuconazole 12.0 g ai. agent/mu
[35] = Tebuconazole 15.0 g ai. agent/mu
[36] = Tebuconazole 17.5 g ai. agent/mu
[37] = Tebuconazole 19.0 g ai. agent/mu
[38] = Preparation 15 g/mu, Tebuconazole 3 g ai. agent/mu
[39] = Preparation 37.5 g/mu, Tebuconazole 7.5 g ai. agent/mu
[40] = Preparation 50 g/mu, Tebuconazole 10 g ai. agent/mu
[41] = Preparation 22.5 g/mu, Tebuconazole 4.5 g ai. agent/mu
[42] = Preparation 30 g/mu, Tebuconazole 6 g ai. agent/mu

Tebuconazole
Median Effective Concentration (EC50) for Growth Inhibition (Fusarium graminearum; F.g sensitive strains): 0.096 µg/mL | Average Fungal Colony Diameter F.g (Fusarium graminearum; Tebuconazole 0.02 μg/mL): 42 mm | Growth Inhibition Rate F.g (Fusarium graminearum; Tebuconazole 0.02 μg/mL): 34.2% | Average Fungal Colony Diameter F.g (Fusarium graminearum; Tebuconazole 0.078 μg/mL): 32 mm | Growth Inhibition Rate F.g (Fusarium graminearum; Tebuconazole 0.078 μg/mL): 47.5% | Average Fungal Colony Diameter F.g (Fusarium graminearum; Tebuconazole 0.3125 μg/mL): 21 mm | Growth Inhibition Rate F.g (Fusarium graminearum; Tebuconazole 0.3125 μg/mL): 72.1% | Average Fungal Colony Diameter F.g (Fusarium graminearum; Tebuconazole 5.0 μg/mL): 9 mm | Growth Inhibition Rate F.g (Fusarium graminearum; Tebuconazole 5.0 μg/mL): 88.0% | Median Effective Concentration (EC50) for Growth Inhibition (Fusarium asiaticum; F.a carbendazim-resistant strains): 0.116 µg/mL | Median Effective Concentration (EC50) for Growth Inhibition (Fusarium asiaticum; F.a phenamacril-resistant strains): 0.111 µg/mL | Median Effective Concentration (EC50) for Growth Inhibition (Fusarium asiaticum; F.a sensitive strains): 0.102 µg/mL | Average Fungal Colony Diameter F.a (Fusarium asiaticum; Tebuconazole 0.02 μg/mL): 43 mm | Growth Inhibition Rate F.a (Fusarium asiaticum; Tebuconazole 0.02 μg/mL): 32.9% | Average Fungal Colony Diameter F.a (Fusarium asiaticum; Tebuconazole 0.078 μg/mL): 34 mm | Growth Inhibition Rate F.a (Fusarium asiaticum; Tebuconazole 0.078 μg/mL): 48.8% | Average Fungal Colony Diameter F.a (Fusarium asiaticum; Tebuconazole 0.3125 μg/mL): 22 mm | Growth Inhibition Rate F.a (Fusarium asiaticum; Tebuconazole 0.3125 μg/mL): 70.8% | Average Fungal Colony Diameter F.a (Fusarium asiaticum; Tebuconazole 5.0 μg/mL): 9 mm | Growth Inhibition Rate F.a (Fusarium asiaticum; Tebuconazole 5.0 μg/mL): 88.0% | activity of tebuconazole relative to carbendazim (by EC50) ([1]; sensitive strains): about 4.5 times | activity of tebuconazole relative to phenamacril (by EC50) ([1]; sensitive strains): about 1.5 times | inhibition rate on the hyphal growth of the head blight fungi ([1]; tebuconazole 0.1 μg/ml alone): about 50% | DON Biosynthesis Inhibition Rate ([2]; 7 days): 4.2% | Toxin Production Capability ([2]; 7 days): 87.42 μgDON/g by dry weight of hyphae | DON Biosynthesis Inhibition Rate ([2]; 14 days): 0.6% | Toxin Production Capability ([2]; 14 days): 52.50 μgDON/g by dry weight of hyphae | inhibitory effect on toxin biosynthesis capability versus blank control ([2]; tebuconazole 0.1 μg/ml, seven and fourteen days): does not have significant inhibitory effects | Disease Index Prevention Effect % Powdery Mildew (powdery mildew [3]): 72.61% and 76.19% and 66.32% and 39.46% | Disease Index Prevention Effect % Head Blight (wheat scab [4]; [28]): 12.9% | Disease Index Prevention Effect % Head Blight (wheat scab [4]; [29]): 25.6% | Disease Index Prevention Effect % Head Blight (wheat scab [4]; [30]): 42.5% | Disease Index Prevention Effect % Head Blight (wheat scab [4]; [31]): 56.7% | Disease Index Prevention Effect % Head Blight (wheat scab [4]; [32]): 61.5% | Disease Index Prevention Effect % Head Blight (wheat scab [4]; [33]): 65.4% | Disease Index Prevention Effect % Head Blight (wheat scab [4]; [34]): 68.4% | Disease Index Prevention Effect % Head Blight (wheat scab [4]; [35]): 71.8% | Disease Index Prevention Effect % Head Blight (wheat scab [4]; [36]): 73.9% | Disease Index Prevention Effect % Head Blight (wheat scab [4]; [37]): 74.2% | Disease Index Prevention Effect % Leaf Blight (leaf blight [5]; [28]): 14.5% | Disease Index Prevention Effect % Leaf Blight (leaf blight [5]; [29]): 19.2% | Disease Index Prevention Effect % Leaf Blight (leaf blight [5]; [30]): 29.5% | Disease Index Prevention Effect % Leaf Blight (leaf blight [5]; [31]): 71.2% | Disease Index Prevention Effect % Leaf Blight (leaf blight [5]; [32]): 73.1% | Disease Index Prevention Effect % Leaf Blight (leaf blight [5]; [33]): 74.2% | Disease Index Prevention Effect % Leaf Blight (leaf blight [5]; [34]): 76.5% | Disease Index Prevention Effect % Leaf Blight (leaf blight [5]; [35]): 78.9% | Disease Index Prevention Effect % Leaf Blight (leaf blight [5]; [36]): 80.3% | Disease Index Prevention Effect % Leaf Blight (leaf blight [5]; [37]): 81.2% | Disease Index Prevention Effect % Powdery Mildew (powdery mildew [6]; [28]): 15.4% | Disease Index Prevention Effect % Powdery Mildew (powdery mildew [6]; [29]): 28.5% | Disease Index Prevention Effect % Powdery Mildew (powdery mildew [6]; [30]): 36.4% | Disease Index Prevention Effect % Powdery Mildew (powdery mildew [6]; [31]): 58.2% | Disease Index Prevention Effect % Powdery Mildew (powdery mildew [6]; [32]): 60.5% | Disease Index Prevention Effect % Powdery Mildew (powdery mildew [6]; [33]): 65.2% | Disease Index Prevention Effect % Powdery Mildew (powdery mildew [6]; [34]): 76.5% | Disease Index Prevention Effect % Powdery Mildew (powdery mildew [6]; [35]): 74.5% | Disease Index Prevention Effect % Powdery Mildew (powdery mildew [6]; [36]): 76.4% | Disease Index Prevention Effect % Powdery Mildew (powdery mildew [6]; [37]): 81.2% | Disease Index Prevention Effect % Rust (rust [7]; [28]): 18.0% | Disease Index Prevention Effect % Rust (rust [7]; [29]): 32.1% | Disease Index Prevention Effect % Rust (rust [7]; [30]): 45.2% | Disease Index Prevention Effect % Rust (rust [7]; [31]): 71.5% | Disease Index Prevention Effect % Rust (rust [7]; [32]): 78.4% | Disease Index Prevention Effect % Rust (rust [7]; [33]): 80.5% | Disease Index Prevention Effect % Rust (rust [7]; [34]): 81.8% | Disease Index Prevention Effect % Rust (rust [7]; [35]): 85.6% | Disease Index Prevention Effect % Rust (rust [7]; [36]): 89.4% | Disease Index Prevention Effect % Rust (rust [7]; [37]): 92.8% | Disease Index Prevention Effect % Head Blight (wheat scab [8]; Tebuconazole 6 g ai. agent/mu): 53.4% | Disease Index Prevention Effect % Head Blight (wheat scab [8]; Tebuconazole 9 g ai. agent/mu): 65.8% | Disease Index Prevention Effect % Head Blight (wheat scab [8]; Tebuconazole 15 g ai. agent/mu): 70.4% | Disease Index Prevention Effect % Head Blight (wheat scab [8]; Tebuconazole 21 g ai. agent/mu): 76.8% | Disease Index Prevention Effect % Leaf Blight (leaf blight [9]; Tebuconazole 6 g ai. agent/mu): 64.5% | Disease Index Prevention Effect % Leaf Blight (leaf blight [9]; Tebuconazole 9 g ai. agent/mu): 70.1% | Disease Index Prevention Effect % Leaf Blight (leaf blight [9]; Tebuconazole 15 g ai. agent/mu): 72.4% | Disease Index Prevention Effect % Leaf Blight (leaf blight [9]; Tebuconazole 21 g ai. agent/mu): 73.5% | Disease Index Prevention Effect % Powdery Mildew (powdery mildew [10]; Tebuconazole 6 g ai. agent/mu): 62.4% | Disease Index Prevention Effect % Powdery Mildew (powdery mildew [10]; Tebuconazole 9 g ai. agent/mu): 70.8% | Disease Index Prevention Effect % Powdery Mildew (powdery mildew [10]; Tebuconazole 15 g ai. agent/mu): 76.4% | Disease Index Prevention Effect % Powdery Mildew (powdery mildew [10]; Tebuconazole 21 g ai. agent/mu): 81.6% | Disease Index Prevention Effect % Rust (rust [11]; Tebuconazole 6 g ai. agent/mu): 61.5% | Disease Index Prevention Effect % Rust (rust [11]; Tebuconazole 9 g ai. agent/mu): 72.6% | Disease Index Prevention Effect % Rust (rust [11]; Tebuconazole 15 g ai. agent/mu): 78.3% | Disease Index Prevention Effect % Rust (rust [11]; Tebuconazole 21 g ai. agent/mu): 86.1% | Thousand Kernel Weight ([12]; Tebuconazole 6 g ai. agent/mu): 40.5 g | Thousand Kernel Weight ([12]; Tebuconazole 9 g ai. agent/mu): 41.5 g | Thousand Kernel Weight ([12]; Tebuconazole 15 g ai. agent/mu): 42 g | Thousand Kernel Weight ([12]; Tebuconazole 21 g ai. agent/mu): 42.7 g | Disease Index Prevention Effect % Head Blight (wheat scab [13]): 72.4% | Disease Index Prevention Effect % Leaf Blight (leaf blight [14]; [38]): 65.4% | Disease Index Prevention Effect % Leaf Blight (leaf blight [14]; [39]): 68.5% | Disease Index Prevention Effect % Leaf Blight (leaf blight [14]; [40]): 64.5% | Disease Index Prevention Effect % Powdery Mildew (powdery mildew [15]; [38]): 68.1% | Disease Index Prevention Effect % Powdery Mildew (powdery mildew [15]; [39]): 73.5% | Disease Index Prevention Effect % Powdery Mildew (powdery mildew [15]; [40]): 82.4% | Disease Index Prevention Effect % Rust (rust [16]; [38]): 64.5% | Disease Index Prevention Effect % Rust (rust [16]; [39]): 75.6% | Disease Index Prevention Effect % Rust (rust [16]; [40]): 82.4% | Thousand Kernel Weight [17, 38]: 40 g | Thousand Kernel Weight [17, 39]: 41.5 g | Thousand Kernel Weight [17, 40]: 40.8 g | Disease Index Prevention Effect % Head Blight (wheat scab [18]): 80.1% | Disease Index Prevention Effect % Leaf Blight (leaf blight [19]): 84.2% | Disease Index Prevention Effect % Powdery Mildew (powdery mildew [20]): 96.2% | Disease Index Prevention Effect % Rust (rust [21]): 98.5% | Disease Index Prevention Effect % Head Blight (wheat scab [22]): 84.6% | Disease Index Prevention Effect % Leaf Blight (leaf blight [23]): 83.6% | Disease Index Prevention Effect % Powdery Mildew (powdery mildew [24]): 88.2% | Disease Index Prevention Effect % Rust (rust [25]): 82.4% | Disease Index Prevention Effect % Head Blight (wheat scab [26]; [41]): 48.2% | Disease Index Prevention Effect % Head Blight (wheat scab [26]; [42]): 53.9% | Disease Index Prevention Effect % Powdery Mildew (powdery mildew [27]; [38]): 48.7% | Disease Index Prevention Effect % Powdery Mildew (powdery mildew [27]; [41]): 60.4% | Disease Index Prevention Effect % Powdery Mildew (powdery mildew [27]; [42]): 64.9% | Disease Index Prevention Effect % Powdery Mildew (powdery mildew [27]; [39]): 72.4%
